Source: the NIST ThermoML archive (doi:10.1016/j.jct.2008.12.005)
Numbers after ± are expanded uncertainties.

Assay: activity coefficient (dimensionless); of the first substance listed, at infinite dilution; xn = mol fraction of the nth substance listed
Details: 101 kPa, Liquid, Chromatography, x1 = 0

Structure (SMILES)	activity coefficient (298.15 K)	activity coefficient (308.15 K)	activity coefficient (318.15 K)	activity coefficient (328.15 K)	activity coefficient (338.15 K)	activity coefficient (348.15 K)	activity coefficient (358.15 K)	activity coefficient (368.15 K)
C=CCCCCC [1-heptene] + CC[S+](CC)CC.O=S(=O)([N-]S(=O)(=O)C(F)(F)F)C(F)(F)F	18.3 ± 1.3	17.2 ± 1.2	16.1 ± 1.1	15.2 ± 1	14.4 ± 1	13.7 ± 0.9	12.9 ± 0.9	12.4 ± 0.8
CCCCCC [hexane] + CC[S+](CC)CC.O=S(=O)([N-]S(=O)(=O)C(F)(F)F)C(F)(F)F	28.6 ± 2	26.2 ± 1.8	24 ± 1.6	22.1 ± 1.5	20.7 ± 1.4	19.2 ± 1.3	18 ± 1.2	16.9 ± 1.2
C#CCCC [1-pentyne] + CC[S+](CC)CC.O=S(=O)([N-]S(=O)(=O)C(F)(F)F)C(F)(F)F	2.52 ± 0.17	2.52 ± 0.17	2.53 ± 0.17	2.54 ± 0.17	2.54 ± 0.17	2.55 ± 0.17	2.55 ± 0.17	2.55 ± 0.17
C#CCCCCCC [1-octyne] + CC[S+](CC)CC.O=S(=O)([N-]S(=O)(=O)C(F)(F)F)C(F)(F)F	7.87 ± 0.54	7.68 ± 0.52	7.51 ± 0.51	7.35 ± 0.5	7.2 ± 0.49	7.06 ± 0.48	6.93 ± 0.47	6.81 ± 0.46
c1ccsc1 [thiophene] + CC[S+](CC)CC.O=S(=O)([N-]S(=O)(=O)C(F)(F)F)C(F)(F)F	0.926 ± 0.059	0.935 ± 0.059	0.943 ± 0.059	0.951 ± 0.06	0.958 ± 0.06	0.965 ± 0.061	0.971 ± 0.061	0.977 ± 0.061
C1CCCCC1 [cyclohexane] + CC[S+](CC)CC.O=S(=O)([N-]S(=O)(=O)C(F)(F)F)C(F)(F)F	16.1 ± 1.1	14.7 ± 1	13.5 ± 0.9	12.4 ± 0.8	11.6 ± 0.8	10.7 ± 0.7	10 ± 0.7	9.43 ± 0.64
C=CCCC [1-pentene] + CC[S+](CC)CC.O=S(=O)([N-]S(=O)(=O)C(F)(F)F)C(F)(F)F	8.81 ± 0.6	8.41 ± 0.57	8.06 ± 0.55	7.72 ± 0.53	7.4 ± 0.5	7.17 ± 0.49	6.89 ± 0.47	6.69 ± 0.46
Cc1ccccc1C [1,2-dimethylbenzene] + CC[S+](CC)CC.O=S(=O)([N-]S(=O)(=O)C(F)(F)F)C(F)(F)F	–	2.05 ± 0.14	2.07 ± 0.14	2.09 ± 0.14	2.1 ± 0.14	2.12 ± 0.14	2.13 ± 0.14	2.15 ± 0.15
CCCCO [butan-1-ol] + CC[S+](CC)CC.O=S(=O)([N-]S(=O)(=O)C(F)(F)F)C(F)(F)F	–	3.32 ± 0.23	2.96 ± 0.2	2.66 ± 0.18	2.41 ± 0.16	2.2 ± 0.15	2 ± 0.14	1.84 ± 0.12
CCCCCCCCC [nonane] + CC[S+](CC)CC.O=S(=O)([N-]S(=O)(=O)C(F)(F)F)C(F)(F)F	87.2 ± 6	77.6 ± 5.3	68.6 ± 4.7	61.8 ± 4.2	55.5 ± 3.8	50.5 ± 3.5	46 ± 3.1	42.4 ± 2.9
O [water] + CC[S+](CC)CC.O=S(=O)([N-]S(=O)(=O)C(F)(F)F)C(F)(F)F	–	3.91 ± 0.27	3.39 ± 0.23	2.97 ± 0.2	2.63 ± 0.18	2.33 ± 0.16	2.08 ± 0.14	1.88 ± 0.13
CCCO [propan-1-ol] + CC[S+](CC)CC.O=S(=O)([N-]S(=O)(=O)C(F)(F)F)C(F)(F)F	–	2.49 ± 0.17	2.24 ± 0.15	2.04 ± 0.14	1.85 ± 0.12	1.7 ± 0.11	1.57 ± 0.1	1.46 ± 0.1
Cc1cccc(C)c1 [1,3-dimethylbenzene] + CC[S+](CC)CC.O=S(=O)([N-]S(=O)(=O)C(F)(F)F)C(F)(F)F	–	2.29 ± 0.16	2.31 ± 0.16	2.33 ± 0.16	2.34 ± 0.16	2.36 ± 0.16	2.38 ± 0.16	2.39 ± 0.16
C1CCCCCC1 [cycloheptane] + CC[S+](CC)CC.O=S(=O)([N-]S(=O)(=O)C(F)(F)F)C(F)(F)F	21.7 ± 1.5	19.8 ± 1.4	18 ± 1.2	16.5 ± 1.1	15.2 ± 1	14.1 ± 1	13.1 ± 0.9	12.2 ± 0.8
CCO [ethanol] + CC[S+](CC)CC.O=S(=O)([N-]S(=O)(=O)C(F)(F)F)C(F)(F)F	2.15 ± 0.15	1.95 ± 0.13	1.77 ± 0.12	1.61 ± 0.11	1.48 ± 0.1	1.36 ± 0.09	1.27 ± 0.08	1.18 ± 0.08
C1CCCCCCC1 [cyclooctane] + CC[S+](CC)CC.O=S(=O)([N-]S(=O)(=O)C(F)(F)F)C(F)(F)F	30.3 ± 2.1	27.2 ± 1.9	24.5 ± 1.7	22.4 ± 1.5	20.4 ± 1.4	18.7 ± 1.3	17.2 ± 1.2	16 ± 1.1
C#CCCCC [1-hexyne] + CC[S+](CC)CC.O=S(=O)([N-]S(=O)(=O)C(F)(F)F)C(F)(F)F	3.63 ± 0.25	3.62 ± 0.25	3.6 ± 0.25	3.58 ± 0.24	3.57 ± 0.24	3.56 ± 0.24	3.54 ± 0.24	3.53 ± 0.24
CCCCCCCC [octane] + CC[S+](CC)CC.O=S(=O)([N-]S(=O)(=O)C(F)(F)F)C(F)(F)F	59.6 ± 4.1	53.3 ± 3.7	47.9 ± 3.3	43.6 ± 3	39.6 ± 2.7	36.3 ± 2.5	33.5 ± 2.3	30.8 ± 2.1
CCCCC [pentane] + CC[S+](CC)CC.O=S(=O)([N-]S(=O)(=O)C(F)(F)F)C(F)(F)F	21.6 ± 1.5	19.9 ± 1.4	18.3 ± 1.3	16.8 ± 1.1	15.6 ± 1.1	14.6 ± 1	13.5 ± 0.9	12.7 ± 0.9
C#CCCCCC [1-heptyne] + CC[S+](CC)CC.O=S(=O)([N-]S(=O)(=O)C(F)(F)F)C(F)(F)F	5.34 ± 0.36	5.28 ± 0.36	5.21 ± 0.36	5.14 ± 0.35	5.08 ± 0.35	5.04 ± 0.34	4.98 ± 0.34	4.93 ± 0.34
Cc1ccc(C)cc1 [1,4-dimethylbenzene] + CC[S+](CC)CC.O=S(=O)([N-]S(=O)(=O)C(F)(F)F)C(F)(F)F	–	2.27 ± 0.15	2.3 ± 0.16	2.32 ± 0.16	2.34 ± 0.16	2.36 ± 0.16	2.38 ± 0.16	2.4 ± 0.16
CCc1ccccc1 [ethylbenzene] + CC[S+](CC)CC.O=S(=O)([N-]S(=O)(=O)C(F)(F)F)C(F)(F)F	2.42 ± 0.16	2.43 ± 0.17	2.43 ± 0.17	2.44 ± 0.17	2.44 ± 0.17	2.45 ± 0.17	2.45 ± 0.17	2.45 ± 0.17
C=CCCCCCC [oct-1-ene] + CC[S+](CC)CC.O=S(=O)([N-]S(=O)(=O)C(F)(F)F)C(F)(F)F	27 ± 1.8	25 ± 1.7	23.2 ± 1.6	21.8 ± 1.5	20.4 ± 1.4	19.2 ± 1.3	18.2 ± 1.2	17.3 ± 1.2
C1CCCC1 [cyclopentane] + CC[S+](CC)CC.O=S(=O)([N-]S(=O)(=O)C(F)(F)F)C(F)(F)F	10.8 ± 0.7	10.1 ± 0.7	9.31 ± 0.64	8.72 ± 0.59	8.17 ± 0.56	7.7 ± 0.53	7.29 ± 0.5	6.94 ± 0.47
COC(C)(C)C [2-methoxy-2-methylpropane] + CC[S+](CC)CC.O=S(=O)([N-]S(=O)(=O)C(F)(F)F)C(F)(F)F	2.92 ± 0.2	2.94 ± 0.2	2.96 ± 0.2	2.98 ± 0.2	3 ± 0.2	3.02 ± 0.21	3.03 ± 0.21	3.05 ± 0.21
CCCCCCCCCC [decane] + CC[S+](CC)CC.O=S(=O)([N-]S(=O)(=O)C(F)(F)F)C(F)(F)F	131 ± 9	114 ± 8	101 ± 7	89.6 ± 6.1	80 ± 5.5	72.5 ± 5	65.8 ± 4.5	59.7 ± 4.1
CO [methanol] + CC[S+](CC)CC.O=S(=O)([N-]S(=O)(=O)C(F)(F)F)C(F)(F)F	1.62 ± 0.11	1.48 ± 0.1	1.35 ± 0.09	1.25 ± 0.08	1.15 ± 0.07	1.07 ± 0.07	1 ± 0.06	0.935 ± 0.059
